Measured values as given in the Deep4Chem optical property database.
Several values for one entry are separate records, joined by “and”; a condition that tells them apart may be missing. Equal entries are not always repeated.

Experiment: solvent given as SMILES

For `O=P1(c2ccccc2)C(c2ccc(C(F)(F)F)cc2)=Cc2ccccc21` (configuration not stated), the emission maximum (in C1CCOC1) was 414 nm.
With `CN(C)c1ccc(C2=C(c3ccccc3)c3oc4ccccc4[n+]3[B-](F)(F)O2)cc1` the emission maximum (in C1CCOC1) was 476 nm.
`CN(C)c1ccc(-c2cc(-c3ccc(C#N)cc3)nc(-c3ccccc3)n2)cc1` showed an emission maximum (in ClC(Cl)Cl) of 495 nm.
Work on `C[Si]1(C)O[Si](C)(C)c2cc3c(-c4ccc(F)cc4)c4ccccc4nc3cc21` yielded an emission maximum (in ClCCl) of 503 nm.
Work on `COc1cc2c(cc1OC)C1=C[C@H](c3ccc(Cl)cc3)C3(C(C#N)=C(C#N)N1CC2)c1ccccc1-c1ccccc13` yielded an emission maximum (in ClCCl) of 405 nm.
In the case of `CC1=C(c2cccs2)C(C)=[N+]2C1=C(c1ccc(O)cc1)c1c(C)c(-c3cccs3)c(C)n1[B-]2(F)F`, the emission maximum (in CO) is reported as 602 nm, the emission maximum (in Cc1ccccc1) is reported as 604 nm and the emission maximum (in ClCCl) is reported as 605 nm.
For `CC(C)(C)c1ccc2c(c1)c1cc(C(C)(C)C)ccc1n2-c1ccc(C(=C(C#N)C#N)c2ccc(-n3c4ccc(C(C)(C)C)cc4c4cc(C(C)(C)C)ccc43)cc2)cc1`, the emission maximum (in Cc1ccccc1) was 566 nm.
With `CCN1c2ccc(-c3cc(C(F)(F)F)[nH]n3)cc2Sc2cc(-c3cc(C(F)(F)F)[nH]n3)ccc21` the emission maximum (in C1CCOC1) was 469 nm, the emission maximum (in CC#N) was 469 nm and the emission maximum (in CN(C)C=O) was 464 nm. For the same molecule, the emission maximum (in ClCCl) was 467 nm and the emission maximum (in c1ccccc1) was 463 nm.
With `CCCCCCCCCCCCN(CCCCCCCCCCCC)c1ccc2c(c1)oc(=O)c1c(=O)oc3ccccc3c12` the emission maximum (in CS(C)=O) was 562 nm and the emission maximum (in ClCCl) was 528 nm.
Work on `c1ccc2c(c1)c1ccccc1c1ccccc21` yielded an emission maximum (in ClCCl) of 355 nm.
For `CC(C)(C)c1cccc2c1oc1nc3oc4cc(-n5c6ccccc6c6ccccc65)ccc4c3cc12`, the emission maximum (in ClC(Cl)Cl) was 397 nm.
`C=Cc1cccc(OC)c1` gave an emission maximum (in C1CCCCC1) of 327 nm and an emission maximum (in CC#N) of 330 nm.
Work on `c1ccc(N(c2ccccc2)c2ccc(-c3ccc4c(c3)C3(c5ccccc5Sc5ccccc53)c3cc(-c5ccc(N(c6ccccc6)c6ccccc6)cc5)ccc3-4)cc2)cc1` yielded an emission maximum (in ClCCl) of 457 nm and an emission maximum (in c1cc(-n2c3ccccc3c3ccccc32)cc(-n2c3ccccc3c3ccccc32)c1) of 438 nm.
`C1=C(c2ccc(-c3cccs3)s2)CCC(c2ccccc2)C1` (configuration not stated) showed an emission maximum (in C1CCOC1) of 412 nm, an emission maximum (in CC#N) of 411 nm and an emission maximum (in CCCCCC) of 409 nm. The emission maximum (in CCO) was 411 nm, the emission maximum (in OCCOCCO) was 412 nm and the emission maximum (in c1ccncc1) was 417 nm.
For `COc1c2ccccc2c(OC)c2c(C#Cc3ccccc3)c3cc4ccccc4cc3c(C#Cc3ccccc3)c12`, the emission maximum (in ClCCl) was 718 nm.
For `CCCCCCc1ccc2c3c(ccc2c1)O[B-](c1ccccc1)(c1ccccc1)[N+](c1ccc([N+]2=Cc4c(ccc5cc(CCCCCC)ccc45)O[B-]2(c2ccccc2)c2ccccc2)cc1)=C3`, the emission maximum (in C1CCOC1) was 568 nm, the emission maximum (in CC#N) was 561 nm and the emission maximum (in Cc1ccccc1) was 569 nm. The emission maximum (in ClCCl) was 568 nm.
With `Cc1ccc(NC(=O)c2ccc(N(C)C)cc2)cc1` the emission maximum (in C1CCCCC1) was 465 nm, the emission maximum (in C1CCOC1) was 532 nm and the emission maximum (in CC#N) was 502 nm. For the same molecule, the emission maximum (in CCOCC) was 518 nm.
For `Cc1cc(C)c(B(c2ccc(-c3ccc4ccc5cccc6ccc3c4c56)cc2)c2c(C)cc(C)cc2C)c(C)c1`, the emission maximum (in Cc1ccccc1) was 431 nm.
Molecule `CCN(CC)c1ccc2c(-c3ccccc3C(=O)O)c3c([o+]c2c1)/C(=C/c1ccc(N(C)C)s1)CCC3` has an emission maximum (in ClCCl) of 766 nm.
With `COc1ccc(OC)c(C2=C3C=CC(=[N+](C)C)C=C3[Si](C)(C)c3cc(N(C)C)ccc32)c1` the emission maximum (in O) was 665 nm.
`Cc1nc2c(ccc3ccccc32)oc1=O` gave an emission maximum (in c1ccccc1) of 424 nm.
`CCCCCCCCCCCCN1C(=O)c2c(c3ccc4cc(-c5ccc(C(F)(F)F)cc5)c(OC)cc4c3c3c2ccc2cc(-c4ccc(C(F)(F)F)cc4)c(OC)cc23)C1=O` gave an emission maximum (in ClCCl) of 522 nm.
Molecule `F[B-]1(F)n2c(nc(-c3ccccc3)c2-c2ccccc2)-c2cccc[n+]21` has an emission maximum (in C1CCCCC1) of 517 nm, an emission maximum (in C1CCOC1) of 537 nm and an emission maximum (in C1COCCO1) of 510 nm. For the same molecule, the emission maximum (in CC#N) was 543 nm and 498 nm, the emission maximum (in CCCCCC) was 510 nm and 515 nm and the emission maximum (in CO) was 525 nm and 534 nm. The emission maximum (in ClC(Cl)Cl) was 520 nm and 528 nm and the emission maximum (in ClCCl) was 528 nm.
Work on `C(#Cc1c(C#Cc2cccs2)c(C#Cc2cccs2)c(C#Cc2cccs2)c(C#Cc2cccs2)c1C#Cc1cccs1)c1cccs1` yielded an emission maximum (in ClCCl) of 453 nm.
For `CCN(CC)c1ccc2cc(C#N)/c(=N\C(=O)c3ccccc3)oc2c1`, the emission maximum (in CCO) was 472 nm and the emission maximum (in ClCCl) was 460 nm.
`CCCCCCN1C(=O)c2cccc3cc(/N=C\c4ccc(N(c5ccccc5)c5ccccc5)cc4)cc(c23)C1=O` gave an emission maximum (in ClC(Cl)Cl) of 565 nm.
Molecule `N#CC(C#N)=C(c1ccc(-n2ccc3ccccc32)cc1)c1ccc(-n2ccc3ccccc32)cc1` has an emission maximum (in Cc1ccccc1) of 536 nm.
With `O=C1c2cc(-c3ccccc3)ccc2-c2ccc(-c3ccccc3)cc21` the emission maximum (in C1CCOC1) was 360 nm.
`COc1ccc2c(c1)CCC1=C(c3ccccc3)C3=C(c4ccc5cccc(O)c5n4)c4c(-c5ccccc5)c5c(n4[B-](F)(F)[N+]3=C12)-c1ccc(OC)cc1CC5` showed an emission maximum (in O) of 680 nm.
